Laboratory results taken from patent US8993606B2, “Oral formulations for treating metal overload” (FerroKin BioSciences, Inc., priority 2011, dated 2015).

Experiments:
iron = experiment: Pharmacodynamics: iron in 24-hour urine; format: in vivo, human
Description: Urine was collected for 24 hours following administration of Compound 1. […] In other studies, a more sensitive urinary iron assay was employed (LLOQ 10 μg/dL).

healthy subjects [1] = experiment: Safety: single-dose study in healthy subjects (30-75 mg/kg, 20 mg/kg bid); format: in vivo
Description: This was a single-center, double-blind, placebo-controlled study of ascending single oral doses of Compound 1. Six cohorts of 8 subjects (30 and 50 mg/kg single doses) or 5 subjects (40, 60, and 75 mg/kg single doses and 20 mg/kg×2 doses at 12 hour intervals) were dosed sequentially with Compound 1. Within each cohort, 7 or 4 subjects received Compound 1 and 1 subject received placebo. Subjects in the 20 mg/kg×2 doses cohort received a dose the evening prior to the study day (Day −1), approximately 12 hours prior to dosing on Day 1. The dose administered on Day −1 followed a 2-hour fast and that on Day 1 a 10-hour fast.
Thirty-one subjects were enrolled and completed the study: 26 received a single oral dose of Compound 1 [30 (7 subjects), 40 (4 subjects), 50 (7 subjects), 60 (4 subjects) and 75 mg/kg (4 subjects)], 4 subjects previously administered a single dose at 30 and 40 mg/kg received 20 mg/kg bid and 5 received placebo. […] Treatment-emergent adverse events were reported for 13 of the 26 subjects receiving Compound 1 (50%). TEAEs in the active groups included catheter site erythema or hematoma (3 subjects), fatigue (1 subject), headache (2 subjects), dysgueusia (1 subject), presyncope (1 subject), abdominal pain (1 subject), nausea (1 subject), back pain (1 subject), muscle spasm (1 subject), decreased appetite (1 subject), chromaturia (1 subject).

healthy subjects [2] = experiment: Safety: single-dose study in healthy subjects (3, 6, 10, 16 mg/kg); format: in vivo; conditions: for Arthralgia / Colitis / Flatulence / Gastroenteritis / Headache / Somnolence / Total Number (%) of Subjects Experiencing Adverse Events / Total Number of Subjects Experiencing NO Adverse Events / Upper respiratory tract infection: 3 subjects
Description: Example 8 was a double-blind, placebo-controlled single dose-escalating study in healthy subjects. Men between the ages of 18-45 years qualified to participate if they were able to voluntarily give consent and had no clinically significant abnormal findings at the screening evaluation. Specifically, subjects had blood pressure in the normal range, ECG and clinical laboratory values within normal limits, tested negative for drugs of abuse and had not recently donated blood. Subjects were also HIV, Hepatitis B, and Hepatitis C negative and agreed to use an approved method of contraception during the study.
The objectives of this study were to assess the safety, tolerability, and pharmacokinetics of ascending single doses of Compound 1 compared to placebo. Additionally, dose proportionality and pharmacodynamics of Compound 1 were assessed. Four doses of Compound 1 (3, 6, 10, and 16 mg/kg), in capsule form, were evaluated in this study. Following screening, subjects in a given cohort were randomly assigned to receive either Compound 1 or placebo. In the first cohort, 3 subjects received […] and 2 received placebo; in each of the subsequent remaining 3 cohorts, 3 subjects received the next higher dose of Compound 1 and 1 received placebo. Subjects were dosed and then confined to the clinical research unit for 24 hours to conduct safety and pharmacokinetic assessments. Subjects were released from the clinic on Day 2 and returned daily for follow-up visits for 5 days post-dosing.
All 17 enrolled subjects completed the study: Twelve received a single dose of Compound 1 (3, 6, 10, and 16 mg/kg) and 5 received placebo. […] Treatment-emergent adverse events (TEAEs) were reported for 5 of the 12 subjects receiving Compound 1 (Table 28 and 29). A total of 9 AEs were reported; 8 treatment-emergent, and 1 pre-dose, all in subjects receiving Compound 1. […] Additionally, there were no clear differences in safety as evaluated by clinical laboratory assessments, vital sign measurements, and ECG parameters between subjects who had received Compound 1 compared with those who received placebo, and no apparent dose-related trends in these safety assessments in subjects who received Compound 1.

[3] = single oral dose 30-75 mg/kg, 20 mg/kg bid

`COCCOCCOCCOc1cccc(C2=N[C@@](C)(C(=O)O)CS2)c1O` [Compound 1, (S)-4,5-Dihydro-2-[2-hydroxy-3-(3,6,9-trioxadecyloxy)phenyl]-4-methyl-4-thiazolecarboxylate magnesium hydroxide] was tested, and the “iron in 24 hour urine” value (iron; all doses, LLOQ of iron approximately 195 μg/dL) was “no detectable iron”, the “iron in urine, more sensitive assay” value (iron; other studies, LLOQ 10 μg/dL, no dose-dependent trends) was “Iron was detected in the urine of all subjects” and the “subjects with treatment-emergent adverse events” value (healthy subjects [1]; 13 of the 26 subjects) was 50%. For the same compound, the TEAE abdominal pain (healthy subjects [1]; active groups, 26 subjects) was 1 subject, the TEAE back pain (healthy subjects [1]; active groups, 26 subjects) was 1 subject and the “TEAE catheter site erythema or hematoma” value (healthy subjects [1]; active groups, 26 subjects) was 3 subjects. It also gave a TEAE chromaturia (healthy subjects [1]; active groups, 26 subjects) of 1 subject, a TEAE decreased appetite (healthy subjects [1]; active groups, 26 subjects) of 1 subject and a TEAE dysgueusia (healthy subjects [1]; active groups, 26 subjects) of 1 subject. For the same compound, the TEAE fatigue (healthy subjects [1]; active groups, 26 subjects) was 1 subject, the TEAE headache (healthy subjects [1]; active groups, 26 subjects) was 2 subjects and the TEAE muscle spasm (healthy subjects [1]; active groups, 26 subjects) was 1 subject. For the same compound, the TEAE nausea (healthy subjects [1]; active groups, 26 subjects) was 1 subject, the TEAE presyncope (healthy subjects [1]; active groups, 26 subjects) was 1 subject and the “intensity of all AEs” value (healthy subjects [1]; after treatment) was “mild intensity”. The “serious side effects in humans” value (healthy subjects [1]; daily dose higher than 40 mg/kg of body weight) was “no serious side effects were observed”, the “deaths, SAEs, withdrawals due to AEs” value (healthy subjects [1]; [3]) was “no deaths, SAEs), or withdrawals due to AEs” and the tolerability (healthy subjects [1]; [3]) was “well tolerated”. The Arthralgia (healthy subjects [2]; 3 mg/kg) was 0 Number (%) Subjects, the Colitis (healthy subjects [2]; 3 mg/kg) was 0 Number (%) Subjects and the Flatulence (healthy subjects [2]; 3 mg/kg) was 0 Number (%) Subjects. The Gastroenteritis (healthy subjects [2]; 3 mg/kg) was 1 (33%) Number (%) Subjects, the Headache (healthy subjects [2]; 3 mg/kg) was 0 Number (%) Subjects and the Somnolence (healthy subjects [2]; 3 mg/kg) was 1 (33%) Number (%) Subjects. For the same compound, the “Total Number (%) of Subjects Experiencing Adverse Events” value (from here on “Total Number (%)”) (healthy subjects [2]; 3 mg/kg) was 1 (33%) Number (%), the “Total Number of Subjects Experiencing NO Adverse Events” value (healthy subjects [2]; 3 mg/kg) was 2 (67%) and the “Upper respiratory tract infection” value (healthy subjects [2]; 3 mg/kg) was 0 Number (%) Subjects. The Arthralgia (healthy subjects [2]; 6 mg/kg) was 1 (33%) Number (%) Subjects, the Colitis (healthy subjects [2]; 6 mg/kg) was 0 Number (%) Subjects and the Flatulence (healthy subjects [2]; 6 mg/kg) was 0 Number (%) Subjects. For the same compound, the Gastroenteritis (healthy subjects [2]; 6 mg/kg) was 0 Number (%) Subjects, the Headache (healthy subjects [2]; 6 mg/kg) was 0 Number (%) Subjects and the Somnolence (healthy subjects [2]; 6 mg/kg) was 0 Number (%) Subjects. For the same compound, the “Total Number (%)” value (healthy subjects [2]; 6 mg/kg) was 1 (33%) Number (%), the “Total Number of Subjects Experiencing NO Adverse Events” value (healthy subjects [2]; 6 mg/kg) was 2 (67%) and the “Upper respiratory tract infection” value (healthy subjects [2]; 6 mg/kg) was 1 (33%) Number (%) Subjects. For the same compound, the Colitis (healthy subjects [2]; 10 mg/kg) was 0 Number (%) Subjects, the Flatulence (healthy subjects [2]; 10 mg/kg) was 0 Number (%) Subjects and the Gastroenteritis (healthy subjects [2]; 10 mg/kg) was 0 Number (%) Subjects. For the same compound, the Headache (healthy subjects [2]; 10 mg/kg) was 0 Number (%) Subjects, the Somnolence (healthy subjects [2]; 10 mg/kg) was 0 Number (%) Subjects and the “Total Number (%)” value (healthy subjects [2]; 10 mg/kg) was 0 Number (%). For the same compound, the “Total Number of Subjects Experiencing NO Adverse Events” value (healthy subjects [2]; 10 mg/kg) was 3 (100%), the “Upper respiratory tract infection” value (healthy subjects [2]; 10 mg/kg) was 0 Number (%) Subjects and the Arthralgia (healthy subjects [2]; 16 mg/kg) was 0 Number (%) Subjects. For the same compound, the Colitis (healthy subjects [2]; 16 mg/kg) was 1 (33%) Number (%) Subjects, the Flatulence (healthy subjects [2]; 16 mg/kg) was 1 (33%) Number (%) Subjects and the Headache (healthy subjects [2]; 16 mg/kg) was 1 (33%) Number (%) Subjects. The Somnolence (healthy subjects [2]; 16 mg/kg) was 0 Number (%) Subjects, the “Total Number (%)” value (healthy subjects [2]; 16 mg/kg) was 3 (100%) Number (%) and the “Total Number of Subjects Experiencing NO Adverse Events” value (healthy subjects [2]; 16 mg/kg) was 0. The “Upper respiratory tract infection” value (healthy subjects [2]; 16 mg/kg) was 0 Number (%) Subjects, the tolerability (healthy subjects [2]; single dose 3, 6, 10, 16 mg/kg) was “well tolerated” and the “deaths, SAEs, withdrawals due to AEs” value (healthy subjects [2]; single dose 3-16 mg/kg) was “no deaths, no serious adverse events (SAEs), and no withdrawals due to AEs”. For the same compound, the “subjects with treatment-emergent adverse events (TEAEs)” value (healthy subjects [2]; single dose 3-16 mg/kg) was 5 of the 12, the “total AEs reported” value (healthy subjects [2]; single dose 3-16 mg/kg) was 9 AEs and the “treatment-emergent AEs” value (healthy subjects [2]; single dose 3-16 mg/kg) was 8.
